In ChEMBL document CHEMBL4665659, “Utilizing comprehensive and mini-kinome panels to optimize the selectivity of quinoline inhibitors for cyclin G associated kinase (GAK)” (Bioorg Med Chem Lett, 2019) one finds inhibition data, which are given here for five molecules.

Each structure is given as a SMILES string. Active and inactive are the calls of the source. The rule behind the calls is not given here.

Assay [1] addresses T1, Ephrin type-A receptor 8 (Homo sapiens) (UniProt P29322).
T1 sequence (whole entry): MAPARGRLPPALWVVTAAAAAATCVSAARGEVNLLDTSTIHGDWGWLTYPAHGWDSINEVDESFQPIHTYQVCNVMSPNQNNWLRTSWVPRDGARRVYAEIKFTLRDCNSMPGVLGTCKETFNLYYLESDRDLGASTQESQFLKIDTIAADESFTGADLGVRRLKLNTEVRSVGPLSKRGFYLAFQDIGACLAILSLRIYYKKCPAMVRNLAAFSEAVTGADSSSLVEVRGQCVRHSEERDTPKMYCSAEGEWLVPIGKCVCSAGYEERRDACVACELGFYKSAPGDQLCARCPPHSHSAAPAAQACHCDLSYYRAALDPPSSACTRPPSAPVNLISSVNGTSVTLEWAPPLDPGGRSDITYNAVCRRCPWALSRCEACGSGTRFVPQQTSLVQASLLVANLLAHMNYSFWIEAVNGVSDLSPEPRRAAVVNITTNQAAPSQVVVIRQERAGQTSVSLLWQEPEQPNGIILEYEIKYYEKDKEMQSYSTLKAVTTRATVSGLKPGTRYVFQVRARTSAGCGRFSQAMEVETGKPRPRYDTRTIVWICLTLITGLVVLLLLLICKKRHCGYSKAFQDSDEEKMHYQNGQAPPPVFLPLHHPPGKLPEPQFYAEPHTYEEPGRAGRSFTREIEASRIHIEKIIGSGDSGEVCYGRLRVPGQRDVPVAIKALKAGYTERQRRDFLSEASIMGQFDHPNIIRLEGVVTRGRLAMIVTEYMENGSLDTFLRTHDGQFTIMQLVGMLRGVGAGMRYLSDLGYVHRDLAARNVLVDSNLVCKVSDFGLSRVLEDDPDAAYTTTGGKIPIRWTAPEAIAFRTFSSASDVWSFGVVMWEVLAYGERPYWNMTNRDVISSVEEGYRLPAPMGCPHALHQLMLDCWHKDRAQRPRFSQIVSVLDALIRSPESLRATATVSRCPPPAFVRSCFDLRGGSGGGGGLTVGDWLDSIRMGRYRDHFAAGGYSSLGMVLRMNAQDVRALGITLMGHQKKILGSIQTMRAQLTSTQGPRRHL
As to the kind of experiment: Inhibition of human wild type partial length EphA8 (Q608 to C920 residues) expressed in bacterial expression system at 1 uM by Kinomescan method.

Assay [2] has as its target T2, Ephrin type-A receptor 1 (Homo sapiens) (UniProt P21709).
T2 sequence (whole entry): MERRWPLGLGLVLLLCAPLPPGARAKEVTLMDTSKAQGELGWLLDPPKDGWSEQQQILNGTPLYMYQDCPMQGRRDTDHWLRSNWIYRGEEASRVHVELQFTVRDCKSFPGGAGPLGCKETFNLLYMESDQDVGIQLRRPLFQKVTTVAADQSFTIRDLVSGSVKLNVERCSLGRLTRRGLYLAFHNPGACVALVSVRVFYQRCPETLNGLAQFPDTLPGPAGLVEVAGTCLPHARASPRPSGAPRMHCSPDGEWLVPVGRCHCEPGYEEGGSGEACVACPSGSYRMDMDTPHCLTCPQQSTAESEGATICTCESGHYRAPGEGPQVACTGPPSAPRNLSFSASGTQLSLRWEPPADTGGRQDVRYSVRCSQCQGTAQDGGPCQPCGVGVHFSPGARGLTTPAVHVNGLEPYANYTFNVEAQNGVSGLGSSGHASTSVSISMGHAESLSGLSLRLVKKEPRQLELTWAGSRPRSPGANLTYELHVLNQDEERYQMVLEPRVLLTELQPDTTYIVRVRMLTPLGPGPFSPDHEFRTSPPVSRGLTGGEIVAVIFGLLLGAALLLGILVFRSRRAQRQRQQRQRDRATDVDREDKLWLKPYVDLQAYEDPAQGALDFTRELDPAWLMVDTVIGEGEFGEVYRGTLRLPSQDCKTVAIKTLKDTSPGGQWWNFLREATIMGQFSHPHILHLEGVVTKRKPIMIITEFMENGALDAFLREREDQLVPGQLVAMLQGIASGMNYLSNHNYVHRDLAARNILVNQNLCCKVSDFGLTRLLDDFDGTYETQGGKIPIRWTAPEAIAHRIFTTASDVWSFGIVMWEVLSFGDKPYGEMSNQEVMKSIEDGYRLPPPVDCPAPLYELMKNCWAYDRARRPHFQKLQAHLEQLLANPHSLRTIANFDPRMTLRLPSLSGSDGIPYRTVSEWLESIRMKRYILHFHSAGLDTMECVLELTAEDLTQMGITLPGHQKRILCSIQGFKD
As to the kind of experiment: Inhibition of human wild type partial length EphA1 (V588 to I913 residues) expressed in bacterial expression system at 1 uM by Kinomescan method.

For assay [3], the target named is Bone morphogenetic protein receptor type-1B (Homo sapiens, UniProt O00238). As to the kind of experiment: Inhibition of human ALK6 at 1 uM by Kinomescan method.
Chain of Bone morphogenetic protein receptor type-1B (O00238 whole entry, the tested form may be a part): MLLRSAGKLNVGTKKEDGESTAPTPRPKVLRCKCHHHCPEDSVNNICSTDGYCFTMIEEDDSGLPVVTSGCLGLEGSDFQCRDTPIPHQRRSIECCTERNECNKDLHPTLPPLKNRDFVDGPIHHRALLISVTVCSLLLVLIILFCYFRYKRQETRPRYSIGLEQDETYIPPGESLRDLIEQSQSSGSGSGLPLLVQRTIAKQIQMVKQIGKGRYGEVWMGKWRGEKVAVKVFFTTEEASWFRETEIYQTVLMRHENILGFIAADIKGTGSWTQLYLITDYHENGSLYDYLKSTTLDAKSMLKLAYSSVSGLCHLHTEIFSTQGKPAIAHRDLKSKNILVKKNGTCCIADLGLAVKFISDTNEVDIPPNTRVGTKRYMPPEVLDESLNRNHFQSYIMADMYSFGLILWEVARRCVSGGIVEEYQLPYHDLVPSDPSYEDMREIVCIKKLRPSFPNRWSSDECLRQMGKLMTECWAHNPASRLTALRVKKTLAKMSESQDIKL
Assay [4] addresses Tyrosine-protein kinase Fyn (Homo sapiens) (UniProt P06241). As to the kind of experiment: Inhibition of human wild type partial length Fyn (T243 to L534 residues) expressed in bacterial expression system at 1 uM by Kinomescan method.
Assay [5] has as its target Epidermal growth factor receptor (Homo sapiens) (UniProt P00533). In words: Inhibition of human wild type partial length EGFR (R669 to V1011 residues) expressed in bacterial expression system at 1 uM by Kinomescan method.

Chain of Tyrosine-protein kinase Fyn (Homo sapiens) (P06241 2-537 limits assumed): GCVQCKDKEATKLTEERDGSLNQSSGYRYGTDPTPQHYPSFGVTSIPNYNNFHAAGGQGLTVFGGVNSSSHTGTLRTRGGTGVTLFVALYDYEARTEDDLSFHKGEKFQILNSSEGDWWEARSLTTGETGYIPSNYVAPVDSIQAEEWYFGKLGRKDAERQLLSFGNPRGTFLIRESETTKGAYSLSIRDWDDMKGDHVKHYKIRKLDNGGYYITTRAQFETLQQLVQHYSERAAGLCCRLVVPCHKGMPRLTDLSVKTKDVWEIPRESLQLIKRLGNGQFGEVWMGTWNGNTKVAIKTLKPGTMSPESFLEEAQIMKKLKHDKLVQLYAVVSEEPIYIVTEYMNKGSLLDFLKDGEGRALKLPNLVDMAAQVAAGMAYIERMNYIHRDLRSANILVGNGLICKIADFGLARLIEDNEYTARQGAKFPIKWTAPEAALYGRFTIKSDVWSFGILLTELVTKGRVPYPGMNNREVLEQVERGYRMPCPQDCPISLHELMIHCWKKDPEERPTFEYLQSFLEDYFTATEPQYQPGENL
Chain of Epidermal growth factor receptor (Homo sapiens) (P00533 whole entry, the tested form may be a part): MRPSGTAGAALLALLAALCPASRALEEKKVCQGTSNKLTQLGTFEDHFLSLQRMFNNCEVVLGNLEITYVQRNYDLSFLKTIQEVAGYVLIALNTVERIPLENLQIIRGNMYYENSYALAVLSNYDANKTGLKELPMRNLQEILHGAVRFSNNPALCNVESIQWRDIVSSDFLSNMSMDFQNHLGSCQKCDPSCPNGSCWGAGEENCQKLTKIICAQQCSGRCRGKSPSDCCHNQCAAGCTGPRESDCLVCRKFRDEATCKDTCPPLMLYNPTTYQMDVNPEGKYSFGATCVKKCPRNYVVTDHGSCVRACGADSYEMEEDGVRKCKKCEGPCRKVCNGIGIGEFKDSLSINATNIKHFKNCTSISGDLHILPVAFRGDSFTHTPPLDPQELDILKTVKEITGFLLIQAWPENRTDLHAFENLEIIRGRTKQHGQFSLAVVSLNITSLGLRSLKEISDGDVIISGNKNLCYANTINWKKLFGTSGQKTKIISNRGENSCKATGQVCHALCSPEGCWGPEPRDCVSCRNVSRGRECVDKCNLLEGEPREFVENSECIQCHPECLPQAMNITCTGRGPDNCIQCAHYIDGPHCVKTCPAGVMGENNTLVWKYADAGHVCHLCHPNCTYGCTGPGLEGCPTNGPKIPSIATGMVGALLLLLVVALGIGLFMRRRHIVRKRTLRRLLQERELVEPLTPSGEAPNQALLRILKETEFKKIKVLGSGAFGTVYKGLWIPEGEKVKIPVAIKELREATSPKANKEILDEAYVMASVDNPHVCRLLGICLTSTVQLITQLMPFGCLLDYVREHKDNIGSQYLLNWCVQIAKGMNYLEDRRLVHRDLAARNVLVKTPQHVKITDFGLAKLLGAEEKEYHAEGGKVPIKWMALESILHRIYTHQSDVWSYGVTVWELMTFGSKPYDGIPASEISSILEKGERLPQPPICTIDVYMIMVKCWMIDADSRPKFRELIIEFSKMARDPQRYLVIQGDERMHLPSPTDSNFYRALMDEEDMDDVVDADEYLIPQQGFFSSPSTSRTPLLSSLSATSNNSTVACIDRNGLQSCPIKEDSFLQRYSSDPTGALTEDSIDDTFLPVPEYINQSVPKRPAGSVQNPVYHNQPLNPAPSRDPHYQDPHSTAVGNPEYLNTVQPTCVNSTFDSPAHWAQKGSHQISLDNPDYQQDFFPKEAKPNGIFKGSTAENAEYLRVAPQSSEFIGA

With `COc1cc(Nc2ccnc3cc(C#N)ccc23)cc(OC)c1OC`, the inhibition entry in assay [1], in assay [2], in assay [3] and in assay [4] was “Active” throughout. Also, the inhibition entry in assay [5] was “inactive”.

As for `COc1cc(Nc2ccnc3cc(C(F)(F)F)ccc23)cc(OC)c1OC`, the inhibition entry in assay [1], in assay [2], in assay [3] and in assay [4] was “Active” each time. Besides, in assay [5], the inhibition entry was “inactive”.

In the case of `COc1cc(Nc2ccnc3cc(Br)ccc23)cc(OC)c1OC`, the inhibition result in assay [1], in assay [2], in assay [3] and in assay [4] was “Active” in each case. The inhibition result in assay [5] was “inactive”.

As for `COc1cc(Nc2ccnc3cc(Cl)ccc23)cc(OC)c1OC`, the inhibition entry in assay [1], in assay [2], in assay [3] and in assay [4] was “Active” each time. In addition, in assay [5], the inhibition entry was “inactive”.

`COc1cc(Nc2ccnc3cc(I)ccc23)cc(OC)c1OC`: the inhibition entry in assay [1], in assay [2], in assay [3] and in assay [4] was “Active” in each case. The inhibition entry in assay [5] is “inactive”.
